Measured values reported in US6930203B2, “Gelling agents or thickeners” (Applied NanoSystems B.V., priority 2001, dated 2005).

Experiment: Solvent scope of N,N′-dialkylaldaramides (1%) or N,N′-dialkylpentaramides (1%): gelation/solubility behaviour in solvents
Format: physicochemical
Design: key: g = gelation; s = soluble; p = precipitates; c = crystallizes; ns = not soluble; v = viscous; g* = unstable gel, precipitates; cg = crystalline gel
Details: 1% gelling agent
Source text: It will be understood that the use of the present gelling agents or thickeners to prepare a gel or to thicken a composition is also encompassed by the invention. As is well known, gelling behavior of compounds or compositions is highly unpredictable. […] Preferably, the gelling phenomenon is thermo reversible.
Preferred examples include aromatic and nonaromatic hydrocarbons, alcohols, ethers, esters, aldehydes, alkanoic acids, epoxides, amines, halogenated hydrocarbons, silicon oils, vegetable oils, phosphoric esters, sulfoxides, water and mixtures thereof. In order to obtain a gel, the gelling agent or thickener is preferably mixed with the composition to be transformed to a gel in an amount of between 0.01 and 50 wt. %, based on the weight of the composition. In a preferred embodiment, the mixture of the gelling agent or thickener and the composition is heated to allow for an even better gel formation or thickening. Typically, the heating will involve raising the temperature of the mixture to about 30-175° C. until a clear solution is obtained. In an alternative embodiment, the gelling agent is first dissolved in a polar or apolar solvent and then added to or sprayed into a composition or solvent to be converted into a gel.
Solvent scope of N,N′-dialkylaldaramides (1%) or N,N′-dialkylpentaramides (1%) 1-24 refers to the compounds prepared in Examples 1-23)

Row | SMILES | Gelation/solubility behaviour in 1,2-dichloroethane | Gelation/solubility behaviour in Cyclohexane | Gelation/solubility behaviour in Hexadecane | Gelation/solubility behaviour in Toluene | Gelation/solubility behaviour in Water | Gelation/solubility behaviour in n-butylacetate | Gelation/solubility behaviour in p-xylene | Gelation/solubility behaviour in 2-octanol | Gelation/solubility behaviour in 2-propanol | Gelation/solubility behaviour in Dimethylsulfoxide | Gelation/solubility behaviour in Ethanol | Gelation/solubility behaviour in methyl benzoic acid | Gelation/solubility behaviour in silicon oil | Gelation/solubility behaviour in 2-methoxyethanol (2-methoxyethanol) | Gelation/solubility behaviour in methyl laurate (methyl laurate)
1 | CCCCNC(=O)[C@@H](O)[C@@H](O)[C@H](O)[C@@H](O)C(=O)NCCCC [Example 1, dibutyl D-glucaramicle] | ns | ns | ns | ns | ns | ns | ns |  |  |  |  |  |  |  | 
2 | CCCCCCCCNC(=O)[C@@H](O)[C@@H](O)[C@H](O)[C@H](O)C(=O)NCCCCCCCC [Example 9, dioctyl D-mannaramide] | ns | ns | ns | ns | ns | ns | ns | ns | c | c | c |  |  |  | 
3 | O=C(NC1CCCCC1)[C@@H](O)[C@@H](O)[C@@H](O)C(=O)NC1CCCCC1 [Example 4, dicyclohexyl D-ribaramide] | s | ns | ns | p | ns | p | p | p | p | s | s |  |  |  | 
4 | CCCCCCCCCCCCNC(=O)[C@@H](O)[C@@H](O)[C@H](OC)[C@@H](O)C(=O)NCCCCCCCCCCCC [Example 21, 3-O-methyl-didodecyl D-glucaramide] | p | g | p | p | ns | c | p | c | p | p | p | p | v |  | 
5 | CCCCCCCCNC(=O)[C@@H](O)[C@H](O)[C@H](O)[C@@H](O)C(=O)NCCCCCCCC [Example 10, dioctyl galactaramide] | ns | ns | ns | ns | ns | ns | ns | ns | ns | s | c |  |  |  | 
6 | CCCCCCCCNC(=O)[C@@H](O)[C@@H](O)[C@H](O)[C@@H](O)C(=O)NCCCCCCCC [Example 8, dioctyl D-glucaramide] | ns | ns | ns | ns | ns | ns | ns | ns | c | s | c |  |  |  | 
7 | CO[C@@H]([C@H](O)[C@H](O)C(=O)NC1CCCCCCCCCCC1)[C@@H](O)C(=O)NC1CCCCCCCCCCC1 [Example 22, 3-O-methyl-dicyclododecyl D-glucaramide] | p | g | ns | p |  | p | p | p | p | p | p |  |  |  | 
8 | CCCCCCCC/C=C\CCCCCCCCNC(=O)[C@@H](O)[C@@H](O)[C@H](O)[C@@H](O)C(=O)NCCCCCCCC/C=C\CCCCCCCC [Example 19, dioleyl D-glucaramide] | c | p | p | p | ns | c | p | c | c | c | c |  |  |  | 
9 | O=C(NC1CCCCC1)[C@@H](O)[C@@H](O)[C@H](O)[C@@H](O)C(=O)NC1CCCCCCCCCCC1 [Example 23, N1-cyclododecyl, N6-cyclohexyl D-glucaramide] |  | p |  |  |  | p | p |  |  |  |  | p | v | p | p
10 | CCCCNC(=O)[C@@H](O)[C@H](O)[C@H](O)[C@@H](O)C(=O)NCCCC [Example 3, dibutyl galactaramide] | ns | ns | ns | ns | ns | ns | ns | ns | c | s | c |  |  |  | 
11 | O=C(NC1CCCCCCCCCCC1)[C@@H](O)[C@@H](O)[C@H](O)[C@H](O)C(=O)NC1CCCCCCCCCCC1 [Example 16, dicyclododecyl D-mannaramide] | c | ns | ns | ns | ns | ns | ns | s | cg | p | p |  |  |  | 
12 | CCCCCCCCCCCCNC(=O)[C@@H](O)[C@@H](O)[C@H](O)[C@H](O)C(=O)NCCCCCCCCCCCC [Example 13, didodecyl D-mannaramide] | c | ns | ns | ns | ns | ns | ns | p | c | c | ns |  |  |  | 
